Measurements published in ChEMBL document CHEMBL1201862, “PubChem BioAssay data set” (2004).
The source made the active and inactive calls.

Tests used:
[1] = molecular target: Genome polyprotein (dengue virus type 2, UniProt P29990); experiment: flavivirus cap methylation enzyme inhibition – biochemical, confirmation dose response, primary screen (AID 588689); assay type: functional
[2] = molecular target: NS3 (Hepatitis C virus, UniProt A3EZJ3); experiment: PubChem AID 2173; parameters: species or system Hepacivirus hominis
[3] = Late-stage probe development counterscreen for inhibitors of the Hepatitis C Virus non-structural protein 3 helicase (NS3): luminescence-based cell-based dose response assay to determine whether compounds that inhibit replication of HCV RNA replicon are cytotoxic. [Related pubchem assays (depositor defined):AID1800, AID1830, AID1845, AID1943, AID1945, AID2172, AID2173, AID2474, AID2476]; assay type: functional
[4] = molecular target: T1, Low molecular weight phosphotyrosine protein phosphatase (Homo sapiens, UniProt P24666); assay type: functional; conditions: read-out: IC50_Mean
T1 sequence (P24666 whole entry): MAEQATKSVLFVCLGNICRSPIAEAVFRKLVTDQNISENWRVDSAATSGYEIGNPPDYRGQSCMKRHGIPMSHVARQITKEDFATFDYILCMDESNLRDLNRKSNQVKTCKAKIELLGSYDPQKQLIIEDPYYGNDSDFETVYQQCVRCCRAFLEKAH

[5] = molecular target: T2, Probable nicotinate-nucleotide adenylyltransferase (Staphylococcus aureus (strain N315), UniProt P65502); assay type: functional, Staphylococcus aureus subsp. aureus N315;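 on IC50 Mean: confirmatory dose-response retesting of NadD inhibitor hits first found in an ultra-high-throughput screen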
[6] = molecular target: T1, Low molecular weight phosphotyrosine protein phosphatase; assay type: functional; conditions: read-out: IC50_Mean; remark: listed apart in the source
[7] = molecular target: T2, Probable nicotinate-nucleotide adenylyltransferase; assay type: functional, Staphylococcus aureus subsp. aureus N315; conditions: read-out: IC50_Mean
[8] = system: Vero; experiment: viability of Vero cells under compound – cytotoxicity control for flavivirus capping enzyme inhibitors (AID 588742); assay type: functional; conditions: Chlorocebus sabaeus
[9] = molecular target: NAD-dependent protein deacylase sirtuin-5, mitochondrial (Homo sapiens, UniProt Q9NXA8); experiment: sirtuin-5 deacylation blockers, concentration series – biochemical, fluorescence imaging, cherry-pick, set 5, dose response (AID 720591);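 further: desuccinylation of succinyl peptide AMC substrate read as fluorescence after trypsin release; potency of inhibitors that lower fluorescence and may act on trypsin instead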
[10] = system: A-375; experiment: MITF: Counter assay: A375 proliferation Measured in Cell-Based System Using Plate Reader - 2084-03_Inhibitor_Dose_DryPowder_Activity. [Related pubchem assays (depositor defined):AID488944]; assay type: functional; conditions: Homo sapiens
[11] = molecular target: T3, Microphthalmia-associated transcription factor (Homo sapiens, UniProt O75030); experiment: reducers of TRPM1 reporter luminescence, concentration series – cell-based, SK-MEL-5, cherry-picked, set 3, MITF inhibitor project, dose response (AID 493073); assay type: functional;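 further: SK-MEL-5 melanoma cells with luciferase driven by the MITF target TRPM1 promoter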
T3 sequence (O75030 whole entry): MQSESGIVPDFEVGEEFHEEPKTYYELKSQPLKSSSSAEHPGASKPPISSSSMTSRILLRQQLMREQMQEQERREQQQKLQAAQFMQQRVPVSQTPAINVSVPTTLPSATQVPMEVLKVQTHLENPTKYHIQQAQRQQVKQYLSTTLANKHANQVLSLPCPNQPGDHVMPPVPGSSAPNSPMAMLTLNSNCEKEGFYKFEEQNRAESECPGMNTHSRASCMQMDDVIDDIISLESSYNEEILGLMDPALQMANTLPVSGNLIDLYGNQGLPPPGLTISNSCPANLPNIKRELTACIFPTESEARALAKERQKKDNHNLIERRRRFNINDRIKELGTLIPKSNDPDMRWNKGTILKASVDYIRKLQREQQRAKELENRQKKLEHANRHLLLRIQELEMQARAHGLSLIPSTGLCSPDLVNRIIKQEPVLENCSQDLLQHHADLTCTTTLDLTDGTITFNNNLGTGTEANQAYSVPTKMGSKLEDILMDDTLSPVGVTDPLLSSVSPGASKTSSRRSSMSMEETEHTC

NS3, sequence (A3EZJ3 whole entry): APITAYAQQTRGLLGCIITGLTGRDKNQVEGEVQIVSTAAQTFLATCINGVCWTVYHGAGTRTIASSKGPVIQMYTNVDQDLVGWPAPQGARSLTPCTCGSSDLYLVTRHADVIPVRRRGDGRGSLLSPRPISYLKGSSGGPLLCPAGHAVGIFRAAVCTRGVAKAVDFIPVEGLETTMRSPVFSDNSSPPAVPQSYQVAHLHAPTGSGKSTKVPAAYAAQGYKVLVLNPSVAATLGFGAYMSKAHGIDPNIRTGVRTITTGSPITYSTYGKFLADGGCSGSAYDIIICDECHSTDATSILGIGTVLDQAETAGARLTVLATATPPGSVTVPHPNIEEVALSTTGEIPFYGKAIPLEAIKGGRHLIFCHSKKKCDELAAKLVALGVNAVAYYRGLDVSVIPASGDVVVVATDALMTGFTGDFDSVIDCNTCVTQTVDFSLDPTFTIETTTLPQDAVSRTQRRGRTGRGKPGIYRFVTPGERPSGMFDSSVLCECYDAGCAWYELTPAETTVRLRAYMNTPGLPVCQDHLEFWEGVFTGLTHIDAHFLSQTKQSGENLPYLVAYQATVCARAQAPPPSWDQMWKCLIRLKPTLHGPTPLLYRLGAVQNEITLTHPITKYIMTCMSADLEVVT
Genome polyprotein, sequence (P29990 2492-3391 limits assumed): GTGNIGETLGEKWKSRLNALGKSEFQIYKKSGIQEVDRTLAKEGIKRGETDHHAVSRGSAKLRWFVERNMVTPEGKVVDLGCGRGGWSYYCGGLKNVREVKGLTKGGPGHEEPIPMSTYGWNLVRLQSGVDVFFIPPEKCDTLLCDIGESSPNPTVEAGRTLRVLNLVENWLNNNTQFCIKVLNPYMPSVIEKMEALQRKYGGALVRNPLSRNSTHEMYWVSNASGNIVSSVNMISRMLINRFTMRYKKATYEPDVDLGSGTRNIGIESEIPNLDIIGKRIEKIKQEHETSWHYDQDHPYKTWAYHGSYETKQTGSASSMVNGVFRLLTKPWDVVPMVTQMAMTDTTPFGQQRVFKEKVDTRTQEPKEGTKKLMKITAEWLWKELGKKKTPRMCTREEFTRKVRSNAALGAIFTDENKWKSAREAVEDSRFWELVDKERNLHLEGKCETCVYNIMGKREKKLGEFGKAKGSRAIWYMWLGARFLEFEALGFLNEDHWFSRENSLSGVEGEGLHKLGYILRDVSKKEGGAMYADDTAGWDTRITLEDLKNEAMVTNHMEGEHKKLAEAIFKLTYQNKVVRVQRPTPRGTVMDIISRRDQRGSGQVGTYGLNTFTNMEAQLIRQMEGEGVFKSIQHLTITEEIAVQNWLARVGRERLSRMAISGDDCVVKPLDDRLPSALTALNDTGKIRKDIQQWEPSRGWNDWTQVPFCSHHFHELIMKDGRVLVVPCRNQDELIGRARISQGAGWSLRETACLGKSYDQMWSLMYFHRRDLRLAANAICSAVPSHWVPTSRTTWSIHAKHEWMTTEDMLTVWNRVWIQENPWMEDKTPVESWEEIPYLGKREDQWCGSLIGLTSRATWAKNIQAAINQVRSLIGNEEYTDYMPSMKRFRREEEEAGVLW
NAD-dependent protein deacylase sirtuin-5, mitochondrial, sequence (Q9NXA8 whole entry): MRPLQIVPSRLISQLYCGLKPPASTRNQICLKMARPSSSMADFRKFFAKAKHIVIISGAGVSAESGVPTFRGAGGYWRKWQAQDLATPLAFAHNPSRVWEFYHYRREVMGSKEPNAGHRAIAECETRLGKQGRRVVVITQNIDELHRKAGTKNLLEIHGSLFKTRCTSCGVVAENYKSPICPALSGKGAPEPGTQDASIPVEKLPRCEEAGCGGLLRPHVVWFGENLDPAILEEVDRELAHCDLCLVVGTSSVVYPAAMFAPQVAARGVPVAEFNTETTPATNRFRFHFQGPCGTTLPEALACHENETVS

IC50 [1] | IC50 [2] | IC50 [4] | IC50 [5] | IC50 [6] | IC50 [7] | AC50 [9] | Compound | CC50 [3] | CC50 [8] | AC50 [10] | AC50 [11]
> 100 µM (active) | 1.74 µM (active) | 2.98 µM (active) | 8.93 µM (active) | > 80 µM (inactive) | 28.9 µM (active) | > 30 µM (inactive) | Cc1cc(N2C(=O)C(O)=C(C(=O)c3ccc(C)o3)C2c2ccc(OCc3ccccc3)cc2)no1 (stereo unspecified) | > 100 µM (inactive) | > 40 µM (active) |  | 
 |  |  |  |  |  |  | CC(C)(C)c1ccc(OCCCNCc2ccccc2)cc1 |  |  | 29.7 µM (active) | 18.4 µM (active)
